For assay [1], the system named is GFRα1-overexpressing MG-63 clone #4. Kind of assay: Colony-forming assay in the presence of cisplatin. Particulars: cisplatin 20 μM 10 days; 3-MA (10 μM), Baf (100 nM), CQ (30 μg/ml). It is filed as cell-based, human. The text has this:
FIG. 3. […] Scale bar, 20 μm. […] Scale bar, 20 μm. […] Scale bar, 20 μm.

The subject of a further assay is MG-63 cells. Kind of assay: WST-1 cell viability of MG-63 cells. Conditions: GDNF 50 ng/ml, 24 h. It counts as cell-based, human. On the procedure: FIG. 4. GFRα1 regulates autophagy by Src/AMPK signaling in osteosarcoma cells. (a-b) Immunoblot analysis of osteosarcoma cell lysates with antibodies specific for GFRα1, p-Src, Src, p-AMPK, AMPK, p-mTOR, mTOR, p-p70 S6Kinase, Beclin 1, HMGB1, LC3, and β-actin. (a) MG-63 and cells were treated with cisplatin (20 μM) for 24 hr. (b) Control and GFRα1-deficient MG-63 cells were treated with cisplatin (20 μM) for 24 hr. (c-e) Immunoblot analysis of osteosarcoma cell lysates with antibodies specific for GFRα1, p-Src, Src, p-AMPK, AMPK, LC3, and β-actin. (c) Control and Src-deficient MG-63 cells were treated with cisplatin (20 μM) for 24 hr. […] Cell viability was measured using the WST-1 assay. […] Cell viability was measured using the WST-1 assay. […]
FIG. 7. […] (a) Quantitative real-time PCR of GDNF mRNA expression after cisplatin treatment. […] (b-d) Cell viability was measured using the WST-1 assay. […] (f) Quantitative analysis of the number of yellow puncta and the number of RFP-LC3 puncta in the combined images of Control and GFRα1-overexpressing MG-63 cells treated with GDNF. […]
Cell viability assays. […] Cell viability was determined by measuring the absorbance after adding WST-1. The spectrophotometric absorbance of the samples was measured using an Ultra Multifunctional Microplate Reader (Tecan, Durham, N.C.) at 450 nm. […]
(Tetrazolium assays rely on reduction of a dye to a coloured formazan, in cell work by metabolically active cells.)

With `Cn1cnc(N)c2ncnc1-2` [3-MA, 3-methyladenine], the number of colonies entry in assay [1] is listed as “effectively reduced”.

B1: GDNF: glial cell line-derived neurotrophic factor, the major ligand of GFRα1 (protein, UniProt P39905 78-211, looked up)
Glial cell line-derived …: SPDKQMAVLPRRERNRQAAAANPENSRGKGRRGQRGKNRGCVLTAIHLNVTDLGLGYETKEELIFRYCSGSCDAAETTYDKILKNLSRNRRLVSDKVGQACCRPIAFDDDLSFLDDNLVYHILRKHSAKRCGCI
Take B1: in the assay with MG-63 cells, the “cell proliferation of MG-63 cells” value is recorded as “no effect”.

For the origin of these results see patent publication US20180171411A1, “GFRalpha1 AS A BIOMARKER FOR CISPLATIN-INDUCED CHEMORESISTANCE AND METASTASIS” (THE BOARD OF REGENTS OF THE UNIVERSITY OF TEXAS SYSTEM, priority 2015, published 2018).
